# Results reported in PMC8224385, “X-ray screening identifies active site and allosteric inhibitors of SARS-CoV-2 main protease” (Science (New York, N.y.), 2021).
# Where a name gives a salt, the structure may show the parent alone. Read-outs that look alike come from different tables or passages of the source.
# Columns and labels:
# SARS-CoV-2 = test: microbe, parasite or virus in culture; format: cell-based; conditions: for antiviral activity (in words) / reduction in infectious particles: SARS-CoV-2, Vero E6 cells; for reduction in infectious particles: compounds considered antivirally active
# [1] = Cell viability of Vero E6 cells (CCK-8 method); conditions: African green monkey
# in vitro = conditions: African green monkey
# [2] = Severe acute respiratory syndrome coronavirus 2, Vero C1008, SARS-CoV-2 infectious particles, Vero E6 cells, immunofocus assay, read-out: EC50 for the viral titer reduction
# [3] = Severe acute respiratory syndrome coronavirus 2, Vero C1008, read-out: EC50 for the viral titer reduction
Molecule,antiviral activity (in words) (SARS-CoV-2),CC50 [1] [µM],reduction in infectious particles (SARS-CoV-2) [fold],EC50 (SARS-CoV-2; [2]) [µM],CC50 (in vitro) [µM],EC50 (SARS-CoV-2; [3]) [µM]
PD-168568,inactive,,,,,
CCCC[C@@H](C=O)NC(=O)[C@H](CC(C)C)NC(=O)OCc1ccccc1 [calpeptin],,> 100,≥ 100,,,
CCOc1cc2ncc(C#N)c(Nc3ccc(F)c(Cl)c3)c2cc1NC(=O)/C=C/CN(C)C [pelitinib],,,≥ 100,1.25,14,
c1ccc2nc(N3CCNCC3)ccc2c1 [quipazine maleate],,,,31.6,> 100,
O=C1Nc2ccccc2C2(CCN(CCc3ccc(C(F)(F)F)cc3)CC2)O1 [RS-102895],,55,,,,19.8
"O=C1c2ccccc2CCC1CNCCc1ccc(O)cc1 (stereo not drawn) [HEAT, 2-[β-(4-hydroxyphenyl)-ethylaminomethyl]-tetralone]",,,,24.1,55.4,
CC(C)c1ccc2c(c1)C(N1CCN(CCO)CC1)Cc1ccc(F)cc1S2 (centres unmarked) [isofloxythepin],,,,4.8,17,
O=c1n(CC2CO2)c(=O)n(CC2CO2)c(=O)n1CC1CO1 (centres unmarked) [triglycidyl isocyanurate],,> 100,≥ 100,30,,
CCc1ccc(Cc2ccc3c(c2)[C@]2(OC3)O[C@H](CO)[C@@H](O)[C@H](O)[C@H]2O)cc1 [tofogliflozin],inactive,,,,,
"O=C(NC1CCNCC1)c1n[nH]cc1NC(=O)c1c(Cl)cccc1Cl [AT7519, N-(4-piperidinyl)-4-(2,6-dichlorobenzoylamino)-1H-pyrazole-3-carboxamide]",,,≥ 100,,,25.2
CC(C(O)c1ccc(O)cc1)N1CCC(Cc2ccccc2)CC1 (centres unmarked) [ifenprodil],,> 100,≥ 100,46.9,,
CCc1cc(O)c(Oc2ccc(C(N)=O)cc2F)cc1F [MUT056399],,,≥ 100,38.2,> 100,
Cc1ccc(C(=O)C(C)CN2CCCCC2)cc1 (centres unmarked) [tolperisone],,,≥ 100,19.2,> 100,
